Assay results as given in PubChem BioAssay AID1963844 (Molecular Pharmacology Branch, DTP, NCI, 2024).
Values joined by “and” are separate entries in the source; they are usually repeats but may differ in a detail not shown here. Equal entries are not always repeated.

Test system: 422866-222-R5-J1-PDC complex spheroid viability
Assay: Anticancer human tumor 422866-222-R5-J1-PDC patient-derived pancreatic adenocarcinoma cell line growth inhibition [POLQ]
Details: for viability, T/C: stronger effect = lower value
Description: Multicellular complex tumor spheroid response to Polymerase (POL) inhibitors (novobiocin, ART-558, RP6685) in combination with a variety of drugs and investigational agents in selected tumor cell lines
The POL inhibitors (novobiocin, ART-558, and RP6685) were evaluated both individually and in combination with standard of care and investigational anticancer small molecules within a complex spheroid model of solid tumors. . Complex spheroids include a stromal component modeled by human endothelial cells (HUVEC) and fibroblasts modeled by human mesenchymal stem cells (MSCs). The concentration ranges selected for each drug and investigational agent were based upon clinically achievable concentrations if the clinical Cmax of the agent was known.
Compounds. The drugs and investigational agents: novobiocin (NSC847541), ART-558 (NSC835418), RP-6685 (NSC848927), peposertib (NSC802822), ceralasertib (NSC780249), elimusertib (NSC800525), camonsertib (NSC841442), AZD-1390 (NSC803789), olaparib (NSC753686), talazoparib (NSC767125), rucaparib (NSC756644), sotorasib (NSC818433), MRTX-1133 (NSC836407), SN-38 (NSC673596), topotecan (NSC609699), epotoside (NSC141540), doxorubicin (NSC123127), gemcitabine (NSC613327), 5-fluorouracil (NSC19893), paclitaxel (NSC125973), vemurafenib (NSC761431), MSA-2 (NSC828583), SN-011 (NSC837082), adavosertib (NSC754352), prexasertib (NSC758257), carboplatin (NSC241240) and oxaliplatin (NSC266046), were obtained from the National Cancer Institute (NCI) Developmental Therapeutics Program Chemical Repository (21). The FDA-approved anticancer drug set is available from the Developmental Therapeutics Program at https://dtp.cancer.gov/organization/dscb/obtaining/. […] The stock solutions were prepared in dimethyl sulfoxide (DMSO, Sigma-Aldrich, St. Louis, MO, cat. D2650), except for the platinum compounds which were prepared in saline (Quality Biological, Gaithersburg, MD, cat. 114-055-101), at 800-fold the tested concentration and stored at -70 degrees C prior to their use. All drugs and investigational agents were tested over a range starting from a high concentration at or near the clinical Cmax and decreasing in half-log increments. If the clinical Cmax for an agent had not been determined, the highest concentration tested was 10 microM, except for SN-38, which was tested at a high concentration of 1 microM.
Cell Culture. All cells were maintained in an incubator at 37 degrees C and 5% CO2 with 95% humidity. The PDC lines were cultured according to standard operating procedures established by the NCI PDMR (https://pdmr.cancer.gov). Table 3 of the manuscript, lists the cell lines along with the number of the three cell types plated to form the mct-spheroids and media for tumor cell growth. After thawing, all PDC lines, except 997537-175-T-J1-PDC and 415267-285-R-J2-PDC, were cultured in Matrigel-coated flasks prepared with a working solution of 1X Ham's F-12 nutrient mix, without supplementation (Thermo Fisher Scientific, cat. 11765054), 100 U/mL penicillin-streptomycin (Thermo Fisher Scientific, cat. 15140122), and 2.5% Matrigel (Corning Inc., Corning, NY, cat. 354248) for the first three passages. The two PDC lines 997537-175-T-J1-PDC and 415267-285-R-J2-PDC were cultured on uncoated flasks. The 857933-349-R-J2-PDC line was cultured in 6C/Colon 1B media containing advanced DMEM/F-12 (Thermo Fisher Scientific, cat. 12634028), 10 mM HEPES (Thermo Fisher Scientific, cat. 15630080), 1X GlutaMAX supplement (Thermo Fisher Scientific, cat. 35050061), 0.1 mg/mL primocin (InvivoGen, San Diego, CA, cat. ant-pm-2), 10% defined fetal bovine serum, heat inactivated (HyClone Laboratories Inc., Logan, UT, cat. SH30070.03HI), 50% L-WRN conditioned media (ATCC, cat. CRL-3276), 1.25 mM N-Acetyl-L-cysteine (Sigma-Aldrich, cat. A9165), 10 mM nicotinamide (Sigma-Aldrich, cat. N0636), 1X B-27 supplement (Thermo Fisher Scientific, cat. 17504044), 1X N-2 supplement (Thermo Fisher Scientific, cat. […]

[1] = curve of first compound, second compound 0.0316 µM
[2] = curve of first compound, second compound 0.1 µM
[3] = curve of first compound, second compound 0.316 µM
[4] = curve of first compound, second compound 1 µM
[5] = curve of first compound, second compound 3.16 µM
[6] = curve of first compound, second compound 10 µM
[7] = second compound 0.0316 µM, first compound 0.0316 µM
[8] = second compound 0.0316 µM, first compound 0.1 µM
[9] = second compound 0.0316 µM, first compound 0.316 µM
[10] = second compound 0.0316 µM, first compound 1 µM
[11] = second compound 0.0316 µM, first compound 3.16 µM
[12] = second compound 0.0316 µM, first compound 10 µM
[13] = second compound 0.1 µM, first compound 0.0316 µM
[14] = second compound 0.1 µM, first compound 0.1 µM
[15] = second compound 0.1 µM, first compound 0.316 µM
[16] = second compound 0.1 µM, first compound 1 µM
[17] = second compound 0.1 µM, first compound 3.16 µM
[18] = second compound 0.1 µM, first compound 10 µM
[19] = second compound 0.316 µM, first compound 0.0316 µM
[20] = second compound 0.316 µM, first compound 0.1 µM
[21] = second compound 0.316 µM, first compound 0.316 µM
[22] = second compound 0.316 µM, first compound 1 µM
[23] = second compound 0.316 µM, first compound 3.16 µM
[24] = second compound 0.316 µM, first compound 10 µM
[25] = second compound 1 µM, first compound 0.0316 µM
[26] = second compound 1 µM, first compound 0.1 µM
[27] = second compound 1 µM, first compound 0.316 µM
[28] = second compound 1 µM, first compound 1 µM
[29] = second compound 1 µM, first compound 3.16 µM
[30] = second compound 1 µM, first compound 10 µM
[31] = second compound 3.16 µM, first compound 0.0316 µM
[32] = second compound 3.16 µM, first compound 0.1 µM
[33] = second compound 3.16 µM, first compound 0.316 µM
[34] = second compound 3.16 µM, first compound 1 µM
[35] = second compound 3.16 µM, first compound 3.16 µM
[36] = second compound 3.16 µM, first compound 10 µM
[37] = second compound 10 µM, first compound 0.0316 µM
[38] = second compound 10 µM, first compound 0.1 µM
[39] = second compound 10 µM, first compound 0.316 µM
[40] = second compound 10 µM, first compound 1 µM
[41] = second compound 10 µM, first compound 3.16 µM
[42] = second compound 10 µM, first compound 10 µM
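Note: spheroids exposed to compounds for one week before readout.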
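Throughout, for viability, T/C: percent of DMSO vehicle wells luminescence so 100% = untreated viability.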

`O=C(Nc1ccc(O)c(NS(=O)(=O)c2ccc(F)cc2)c1)c1ccc(-c2ccccc2)cc1` + COC1C(OC(N)=O)C(O)C(Oc2ccc3c(O)c(NC(=O)c4ccc(O)c(CC=C(C)C)c4)c(=O)oc3c2C)OC1(C)C gave an IC50 [1] of over 10 µM, an IC50 [2] of over 10 µM and an IC50 [3] of over 10 µM. It also gave an IC50 [4] of over 10 µM, an IC50 [5] of over 10 µM and an IC50 [6] of over 10 µM. The viability, T/C [7] was 99.6%, the viability, T/C [8] was 101% and the viability, T/C [9] was 77.7%. For the same compound, the viability, T/C [10] was 94.6%, the viability, T/C [11] was 96.1% and the viability, T/C [12] was 126%. It also gave a viability, T/C [13] of 92.2%, a viability, T/C [14] of 87.3% and a viability, T/C [15] of 83.3%. The viability, T/C [16] was 95.2%, the viability, T/C [17] was 88.8% and the viability, T/C [18] was 133%. For the same compound, the viability, T/C [19] was 92.4%, the viability, T/C [20] was 88% and the viability, T/C [21] was 84%. It also gave a viability, T/C [22] of 99.5%, a viability, T/C [23] of 93% and a viability, T/C [24] of 123%. It also gave a viability, T/C [25] of 106%, a viability, T/C [26] of 95% and a viability, T/C [27] of 83.7%. It also gave a viability, T/C [28] of 84.9%, a viability, T/C [29] of 97.7% and a viability, T/C [30] of 125%. For the same compound, the viability, T/C [31] was 93.8%, the viability, T/C [32] was 100% and the viability, T/C [33] was 103%. It also gave a viability, T/C [34] of 89.2%, a viability, T/C [35] of 103% and a viability, T/C [36] of 124%. The viability, T/C [37] was 95.8%, the viability, T/C [38] was 80.9% and the viability, T/C [39] was 87.4%. The viability, T/C [40] was 85%, the viability, T/C [41] was 96.4% and the viability, T/C [42] was 133%.
In the case of `CC1COCCN1c1cc(-c2ccnn2C)c2ccnc(-c3ccn[nH]3)c2n1` (stereo unspecified), the viability, T/C (compound 0.0316 µM) is reported as 76.8% and 96.8% and 97.8%, the viability, T/C (compound 0.1 µM) is reported as 61.1% and 55.4% and 46.2% and the viability, T/C (compound 0.316 µM) is reported as 38.6% and 42.8% and 35.1%. The viability, T/C (compound 1 µM) was 44.4% and 36.6% and 37.6%, the viability, T/C (compound 3.16 µM) was 80.4% and 81.7% and 64% and the viability, T/C (compound 10 µM) was 69.2% and 80.5% and 68.2%. The IC50 (curve of compound) was > 10 µM and 10 µM.
`O=C(c1cc(Cc2n[nH]c(=O)c3ccccc23)ccc1F)N1CCN(C(=O)C2CC2)CC1` + Cc1cccc(N(C)C(=O)C2C(O)CCN2c2nc(C)cc(C(F)(F)F)c2C#N)c1 was tested, and the IC50 [1] was over 10 µM, the IC50 [2] was over 10 µM and the IC50 [3] was over 10 µM. For the same compound, the IC50 [4] was over 10 µM, the IC50 [5] was over 10 µM and the IC50 [6] was over 10 µM. The viability, T/C [7] was 87.5%, the viability, T/C [8] was 103% and the viability, T/C [9] was 89.9%. For the same compound, the viability, T/C [10] was 92.9%, the viability, T/C [11] was 89.7% and the viability, T/C [12] was 68.2%. The viability, T/C [13] was 95.3%, the viability, T/C [14] was 104% and the viability, T/C [15] was 99%. The viability, T/C [16] was 87.4%, the viability, T/C [17] was 87.5% and the viability, T/C [18] was 81.7%. The viability, T/C [19] was 117%, the viability, T/C [20] was 95.9% and the viability, T/C [21] was 107%. The viability, T/C [22] was 97.6%, the viability, T/C [23] was 97.5% and the viability, T/C [24] was 67.3%. For the same compound, the viability, T/C [25] was 96.2%, the viability, T/C [26] was 94.4% and the viability, T/C [27] was 86%. It also gave a viability, T/C [28] of 90.5%, a viability, T/C [29] of 82.2% and a viability, T/C [30] of 68%. For the same compound, the viability, T/C [31] was 87.3%, the viability, T/C [32] was 104% and the viability, T/C [33] was 104%. The viability, T/C [34] was 107%, the viability, T/C [35] was 86.1% and the viability, T/C [36] was 68%. For the same compound, the viability, T/C [37] was 104%, the viability, T/C [38] was 107% and the viability, T/C [39] was 97.7%. The viability, T/C [40] was 89.8%, the viability, T/C [41] was 80.3% and the viability, T/C [42] was 76.4%.
